The numbers were not newly measured in patent US20070275934A1, “Treatment of pancreatic cancer with active vitamin d compounds in combination with other treatments” (priority 2004, published 2007), which cites them from elsewhere.

For the data set, the system named is patients with refractory malignancies. To be noted: weekly HDPA, Beer et al. 2001.

On to `C=C1/C(=C\C=C2/CCC[C@]3(C)[C@@H]([C@H](C)CCCC(C)(C)O)CC[C@@H]23)C[C@@H](O)C[C@@H]1O` [calcitriol, 1α,25-dihydroxyvitamin D3], for which the Dose-limiting toxicity entry is listed as “no dose-limiting toxicity” and the “Mean peak calcitriol levels” value was “within the therapeutic range”.
